Test results: US10517889B2, “Modulators of SMAD7 expression” (Ionis Pharmaceuticals, Inc., priority 2017, dated 2019)
Strand notation (5' to 3'): a small letter for the sugar, then the base; units joined by * are phosphorothioate-linked, units joined directly phosphodiester-linked; [ ] holds rarer units or linkages, { } end groups; capitals alone tell only the bases. k = constrained ethyl (cEt); [5mC] = 5-methylcytosine; d = 2'-deoxy (DNA)

What was measured:
human SMAD7 mRNA [1] = assay: Dose-dependent inhibition of human SMAD7 mRNA expression in Hep3B cells (Example 3, Study 1 and 2); format: cell-based; conditions: electroporation; for % inhibition of SMAD7 mRNA expression: approximately 16 hours; for IC50: Study 2 (740-20000 nM)
How it was run: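 Hep3B cells, 20,000 per well, electroporated with antisense oligonucleotide at 0.31, 1.25, 5.00 or 20.00 μM (first series) or 0.74, 2.22, 6.67 or 20.00 μM (second series). After ~16 h, SMAD7 mRNA measured by RT-qPCR (RTS5062), normalised to RIBOGREEN total RNA. Percent inhibition vs untreated cells; IC50 derived.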

human SMAD7 mRNA [2] = assay: Antisense inhibition of human SMAD7 mRNA expression in Hep3B cells by 3-10-3 cEt gapmers, 10,000 nM, electroporation (Example 2); format: cell-based; conditions: approximately 24 hours; for % inhibition of SMAD7 mRNA expression: electroporation, 10,000 nM antisense oligonucleotide, RTS5062, relative to untreated control cells
How it was run: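 SMAD7 mRNA was measured by real-time PCR (RTS5062) with RiboGreen total-RNA normalization, about 24 h after 10,000 nM gapmer was delivered by electroporation into Hep3B cells at 20,000 per well. Gapmers were 16-mer 3-10-3 cEt, fully phosphorothioate; values are % inhibition versus untreated controls.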

[3] = 740 nM, Study 2, relative to untreated control cells
[4] = Hep3B cells, electroporation with 10,000 nM antisense oligonucleotide, SMAD7 mRNA by RT-PCR (RTS5062), relative to untreated control cells
[5] = Hep3B cells, electroporation with 10,000 nM antisense oligonucleotide, RTS5062, percent inhibition of SMAD7 mRNA relative to untreated control cells

Row | Substance | % inhibition of SMAD7 mRNA expression (human SMAD7 mRNA [1]; [3]) [%] | % inhibition of SMAD7 mRNA expression (human SMAD7 mRNA [1]; 2220 nM, Study 2) [%] | % inhibition of SMAD7 mRNA expression (human SMAD7 mRNA [1]; 6670.0 nM, Study 2) [%] | % inhibition of SMAD7 mRNA expression (human SMAD7 mRNA [1]; 20000.0 nM, Study 2) [%] | IC50 (human SMAD7 mRNA [1]) [µM] | % inhibition of SMAD7 mRNA expression (human SMAD7 mRNA [2]; Hep3B cells) [%] | % Inhibition (human SMAD7 mRNA [2]; [4]) [%] | % Inhibition (human SMAD7 mRNA [2]; Hep3B cells, electroporation with 10,000 nM antisense oligonucleotide, primer probe set RTS5062, relative to untreated control cells) [%] | % Inhibition (human SMAD7 mRNA [2]; [5]) [%] | % Inhibition (human SMAD7 mRNA [2]; SMAD7 mRNA, Hep3B cells, 10,000 nM antisense oligonucleotide, electroporation, primer probe set RTS5062, relative to untreated control cells) [%] | % Inhibition (human SMAD7 mRNA [2]; Hep3B cells, 10,000 nM antisense oligonucleotide, electroporation, RT-PCR primer probe set RTS5062, relative to untreated control cells) [%] | % Inhibition (human SMAD7 mRNA [2]; SMAD7 mRNA, Hep3B cells, electroporation with 10,000 nM antisense oligonucleotide, primer probe set RTS5062, relative to untreated control cells) [%]
1 | 799718 (antisense k[5mC]*kT*kG*d[5mC]*dT*dA*dG*dG*dG*dA*dT*dA*d[5mC]*kT*kG*kA) [compound 799718] | 23 | 52 | 66 | 72 | 4 | 65 |  |  |  |  |  | 
2 | 830144 (antisense kG*kG*kG*dT*dG*dT*dG*d[5mC]*dA*d[5mC]*d[5mC]*dA*dG*kG*kT*kG) [compound 830144] | 47 | 68 | 85 | 96 | 1 |  | 66 |  |  |  |  | 
3 | 799321 (antisense kA*kT*k[5mC]*dT*dG*dG*dA*d[5mC]*dA*dG*dT*d[5mC]*dT*kG*k[5mC]*kT) [compound 799321] | 0 | 5 | 36 | 67 | < 0.7 | 93 |  |  |  |  |  | 
4 | 790614 (kG*kA*kG*dA*dA*dT*dG*d[5mC]*dT*dT*d[5mC]*dT*d[5mC]*kT*kT*kG; antisense) [compound 790614] | 0 | 29 | 45 | 54 | 11 |  |  | 70 |  |  |  | 
5 | 799689 (antisense kT*kG*k[5mC]*dT*dA*d[5mC]*dA*dG*dT*dG*dT*d[5mC]*dA*k[5mC]*k[5mC]*kA) [compound 799689] | 34 | 49 | 65 | 73 | 5 |  |  |  | 63 |  |  | 
6 | 829767 (antisense kG*kG*kA*dG*dG*d[5mC]*dA*d[5mC]*dG*d[5mC]*dG*dG*dT*kG*k[5mC]*kG) [compound 829767] | 5 | 6 | 36 | 49 | 3 |  |  |  |  | 66 |  | 
7 | 799964 (antisense k[5mC]*k[5mC]*k[5mC]*d[5mC]*dT*dT*dA*dG*d[5mC]*dG*d[5mC]*dA*dT*kT*k[5mC]*kT) [compound 799964] | 4 | 15 | 46 | 61 | > 20 |  | 55 |  |  |  |  | 
8 | 799921 (antisense k[5mC]*kT*kA*dA*dT*dT*dA*dG*dT*dG*dA*d[5mC]*dT*kG*kT*kG) [compound 799921] | 10 | 35 | 55 | 58 | 11 |  | 75 |  |  |  |  | 
9 | 799577 (kT*kT*k[5mC]*d[5mC]*dG*dA*dA*dA*dG*dG*dA*d[5mC]*d[5mC]*k[5mC]*kT*kT; antisense) [compound 799577] | 35 | 64 | 75 | 86 | 2 | 55 |  |  |  |  |  | 
10 | 799667 (antisense kA*k[5mC]*kA*dG*dA*dT*dG*d[5mC]*d[5mC]*dA*dG*d[5mC]*dA*kA*kG*kG) [compound 799667] | 8 | 8 | 17 | 47 | 9 |  |  |  | 79 |  |  | 
11 | 830208 (kA*kA*kG*dG*dT*dG*dA*d[5mC]*dT*d[5mC]*dA*dT*d[5mC]*kA*kG*kG; antisense) [compound 830208] | 38 | 70 | 79 | 90 | 1 |  | 57 |  |  |  |  | 
12 | 799568 (k[5mC]*kA*kT*dT*dA*dG*dA*dA*dG*d[5mC]*dT*dT*dT*kG*kA*kG; antisense) [compound 799568] | 49 | 58 | 84 | 92 | 6 |  |  |  | 62 |  |  | 
13 | 799904 (antisense kA*k[5mC]*kT*d[5mC]*dA*dG*dA*dG*d[5mC]*dA*dG*d[5mC]*dT*k[5mC]*kT*k[5mC]) [compound 799904] | 3 | 9 | 23 | 62 | 8 |  | 61 |  |  |  |  | 
14 | 799674 (antisense kG*kA*kT*d[5mC]*dA*d[5mC]*dA*dA*dT*dT*d[5mC]*d[5mC]*dA*kA*kG*k[5mC]) [compound 799674] | 16 | 35 | 64 | 91 | 14 | 48 |  |  |  |  |  | 
15 | 799543 (kT*k[5mC]*kA*dA*dA*dT*dG*d[5mC]*dA*dT*dG*dA*dG*kT*kT*kA; antisense) [compound 799543] | 13 | 26 | 61 | 75 | 5 | 65 |  |  |  |  |  | 
16 | 830067 (kG*kA*kA*dA*dT*dG*dG*dT*dG*d[5mC]*dT*d[5mC]*dT*kG*k[5mC]*k[5mC]; antisense) [compound 830067] | 23 | 59 | 80 | 88 | 10 |  | 63 |  |  |  |  | 
17 | 798824 (kG*kA*k[5mC]*dA*d[5mC]*dA*dG*dT*dA*dG*dA*dG*d[5mC]*k[5mC]*kT*k[5mC]; antisense) [compound 798824] | 0 | 0 | 7 | 42 | 4 |  |  |  |  |  | 74 | 
18 | 829956 (k[5mC]*k[5mC]*kT*dT*dG*dT*d[5mC]*dA*d[5mC]*d[5mC]*d[5mC]*dG*dT*k[5mC]*kT*kG; antisense) [compound 829956] | 65 | 82 | 89 | 95 | 1 |  |  |  |  |  |  | 66
19 | 799509 (antisense kA*kG*kA*dA*dA*d[5mC]*dA*dG*dT*d[5mC]*dT*d[5mC]*d[5mC]*kA*k[5mC]*kA) [compound 799509] | 21 | 54 | 69 | 87 | 12 |  | 57 |  |  |  |  | 
